Patent US9499493B2, “2,4-pyrimidinediamine compounds and their uses” (Rigel Pharmaceuticals, Inc., priority 2002, dated 2016)

What was measured:
[1] = system: cultured human mast cells (CHMC); assay: CHMC low cell density IgE activation: tryptase assay; type: cell-based; settings: anti-IgE
Procedure, shortened: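 Low-density CHMC assay: donor-adjusted 1000-1500 cells/well, MT buffer, 1 hr 37° C preincubation; anti-IgE stimulus 30 min 37° C versus MT-only controls; supernatant tryptase by substrate, 30 min RT.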

[2] = system: cultured human mast cells (CHMC); assay: CHMC low cell density ionomycin activation: tryptase assay; type: cell-based

Row | IC50 [1] [µM] | IC50 [2] [µM] | Compound
1 | 0.955 | > 10 | O=C(CNc1cccc(Nc2ncc(F)c(Nc3cccc(NCCO)c3)n2)c1)N1CCOCC1 [R950236, 5-Fluoro-N4-[3-(2-hydroxyethylamino)phenyl]-N2-[3-(N-morpholino)carbonylmethyleneaminophenyl]-2,4-pyrimidinediamine]
2 | 1.78 | > 10 | OCCn1ncc2cc(Nc3nc(Nc4cccc(O)c4)ncc3F)ccc21 [R935259, 5-Fluoro-N4-[1-(2-hydroxyethyl)indazoline-5-yl]-N2-(3-hydroxyphenyl)-2,4-pyrimidinediamine]
3 | 1.34 | > 10 | Nc1cccc(Nc2nc(Nc3cccc(NCCOCc4ccccc4)c3)ncc2F)c1 [R950176, N4-(3-Aminophenyl)-N2-[3-(N-benzyloxyethyleneamino)phenyl]-5-fluoro-2,4-pyrimidinediamine]
4 | 0.41 | > 10 | CC(C)(C)c1cccc(Nc2nc(Nc3cccc(OCC(=O)NC(CO)CO)c3)ncc2F)c1 [R940296, N4-(3-tert-Butylpheny)-N2-[3-(N-1,3-dihydroxypropyl-2-amino)carbonylmethyleneoxyphenyl]-5-fluoro-2,4-pyrimidinediamine]
5 | 1.27 | 9.52 | O=C(NCCNCc1ccccc1)c1cc2cc(Nc3ncc(F)c(Nc4ccc5oc(C(=O)NCCNCc6ccccc6)cc5c4)n3)ccc2o1 [R950169, N2,N4-Bis[2-(2-(N-benzylamino)ethyleneamoinocarbonyl)-benzofurane-5-yl]-5-fluoro-2,4-pyrimidinediamine]
6 | 0.53 | > 10 | NC(=O)COc1ccc(Nc2ncc(F)c(Nc3cccc(O)c3)n2)cc1 [R945064, N2-[4-(Aminocarbonylmethyleneoxy)phenyl]-5-fluoro-N4-(3-hydroxyphenyl)-2,4-pyrimidinediamine]
7 | 0.284 | 3.3 | CNC(=O)COc1cccc(Nc2ncc(F)c(Nc3cccc(N)c3)n2)c1 [R950263, N4-(3-Aminophenyl)-5-fluoro-N2-[3-(N-methylamino)carbonylmethyleneoxyphenyl]-2,4-pyrimidinediamine]
8 | 0.98 | > 10 | CCOC(=O)CNc1cccc(Nc2ncc(F)c(Nc3cccc(NCCO)c3)n2)c1 [R950229, N2-(Ethoxycarbonylmethyleneaminophenyl)-5-fluoro-N4-[3-(2-hydroxyethylamino)phenyl]-2,4-pyrimidinediamine]
9 | 0.938 | > 10 | COC(=O)COc1ccc(Nc2nc(Nc3ccc(OCC(N)=O)cc3)ncc2F)cc1 [R945060, N2-(4-Aminocarbonylmethyleneoxyphenyl)-5-fluoro-N4-(4-methoxycarbonylmethyleneoxyphenyl)-2,4-pyrimidinediamine]
10 | 0.091 | > 10 | COC(=O)c1cc2cc(Nc3ncc(F)c(Nc4ccc5c(c4)NC(=O)C(F)(F)O5)n3)ccc2o1 [R940353, N4-[(2,2-Difluoro-4H-benzo[1,4]oxazin-3-one)-6-yl]-5-fluoro-N2-(2-methoxycarbonylbenzofur-5-yl)-2,4-pyrimidinediamine]
11 | 0.516 | > 10 | Oc1cccc(Nc2ncc(F)c(Nc3ccc4cn[nH]c4c3)n2)c1 [R935262, 5-Fluoro-N2-(3-hydroxyphenyl)-N4-(indazoline-6-yl)-2,4-pyrimidinediamine]
12 | > 10 | > 10 | CCOC(=O)COc1cccc(Nc2ncc(F)c(Nc3ccc(O)c(C(=O)O)c3)n2)c1 [R950290, N4-(3-Carboxy-4-hydroxyphenyl)-5-fluoro-N2-[3-ethoxycarbonylmethyleneoxyphenyl]-2,4-pyrimidinediamine]
13 | 10 | > 10 | Cn1ncc2cc(Nc3ncc(F)c(Nc4ccc(Cl)nc4)n3)ccc21 [R935375, N4-(6-Chloro-3-pyridyl)-5-fluoro-N2-(1-methylindazoline-5-yl)-2,4-pyrimidinediamine]
14 | 1.94 | > 10 | CCOC(=O)CCn1ncc2ccc(Nc3nc(Nc4ccc5oc(C(=O)OC)cc5c4)ncc3F)cc21 [R935295, N4-[1-(2-Ethoxycarbonylethyl)indazoline-6-yl]-5-fluoro-N2-(2-methoxycarbonylbenzofur-5-yl)-2,4-pyrimidinediamine]
15 | 0.288 | 7.68 | CC(C)(C)c1cccc(Nc2nc(Nc3ccc4oc(CO)cc4c3)ncc2F)c1 [R940287, N4-(3-tert-Butylphenyl)-5-fluoro-N2-[(2-hydroxymethylene)benzofur-5-yl]-2,4-pyrimidinediamine]

More lines, now with the values behind:

Row | Compound | IC50 [1] [µM] | IC50 [2] [µM]
16 | CNC(=O)COc1cccc(Nc2ncc(F)c(Nc3ccc4c(c3)OCCN4C)n2)c1 [R908705, 5-Fluoro-N2-[(N-methylacetamido-2)-3-phenoxy]-N4-(N-methyl-1,4-benzoxazin-7-yl)-2,4-pyrimidinediamine] | 0.801 | > 10
17 | CCOC(=O)c1cnc(Nc2ccc(OCC(=O)N3CCCC3)cc2)nc1Nc1ccc(OCC(=O)N2CCCC2)cc1 [R926562, N2,N4-Bis[4-(N-pyrrolidino)carbonylmethyleneoxyphenyl]-5-ethoxycarbonyl-2,4-pyrimidinediamine] | > 10 | > 10
18 | COc1ccc(Nc2ncc(C)c(Nc3ccc(OC)c(-c4ccccc4)c3)n2)cc1-c1ccccc1 [R935002, N2,N4-Bis[(4-methoxy-3-phenyl)phenyl]-5-methyl-2,4-pyrimidinediamine] | > 10 | > 10
19 | CC(C)Oc1ccc(Nc2ncc(F)c(Nc3ccc4c(cnn4C)c3)n2)cc1 [R935203, 5-Fluoro-N2-(4-isopropoxyphenyl)-N4-(1-methyl-indazoline-5-yl)-2,4-pyrimidinediamine] | 0.562 | > 10
20 | O=C(COc1cccc(Nc2ncc(F)c(Nc3ccc4c(c3)NCCO4)n2)c1)NCCCO [R909252, N4-(1,4-Benzoxazin-6-yl)-5-fluoro-N2-[3-(N-3-hydroxypropylamino)carbonylmethyleneoxyphenyl]-2,4-pyrimidinediamine] | 0.248 | > 10
21 | COC(=O)COc1cccc(Nc2ncc(F)c(Nc3ccc4c(c3)OCCCO4)n2)c1 [R935185, 5-Fluoro-N2-[3-(methoxycarbonylmethyleneoxy)phenyl]-N4-(3,4-propylenedioxyphenyl)-2,4-pyrimidinediamine] | 0.351 | 6.64
22 | Fc1cnc(Nc2ccc3[nH]ncc3c2)nc1Nc1ccc2[nH]ncc2c1 [R935189, N2,N4-Bis(indazolin-5-yl)-5-fluoro-2,4-pyrimidinediamine] | 0.619 | > 10
23 | Cc1noc(COc2ccc(Nc3nc(Nc4ccc(OC(C)C)cc4)ncc3F)cc2)n1 [R935144, 5-Fluoro-N2-(4-isopropoxyphenyl)-N4-[4-(3-methyl-1,2,4-oxadiazol-5-yl)methyleneoxyphenyl]-2,4-pyrimidinediamine] | 0.63 | > 10
24 | Fc1cnc(Nc2ccc3c(c2)CCO3)nc1Nc1ccc2c(c1)CCO2 [R909237, N2,N4-Bis(dihydrobenzofuran-5-yl)-5-fluoro-2,4-pyrimidinediaminediamine] | > 10 | > 10
25 | Cc1noc(COc2ccc(Nc3ncc(F)c(Nc4cccc(O)c4)n3)cc2)n1 [R935141, 5-Fluoro-N4-(3-hydroxyphenyl)-N2-[4-(3-methyl-1,2,4-oxadiazol-5-yl)methyleneoxyphenyl]-2,4-pyrimidinediamine] | 0.727 | > 10
26 | COC(=O)Cn1ncc2cc(Nc3nc(Nc4cccc(O)c4)ncc3F)ccc21 [R935250, 5-Fluoro-N2-(3-hydroxyphenyl)-N4-[1-(methoxycarbonyl)methyl-indazoline-5-yl]-2,4-pyrimidinediamine] | 1.1 | > 10
27 | Cc1ccc(Nc2nc(Cl)ncc2F)cc1C(F)(F)F [Compound R926920] | > 10 | > 10
28 | O=C(COc1cccc(Nc2ncc(F)c(Nc3cccc(O)c3)n2)c1)NCC(O)CO (stereo not shown) [R926746, 5-Fluoro-N4-(3-hydroxyphenyl)-N2-[3-(N-2,3-dihydroxypropylamino)carbonylmethyleneoxyphenyl]-2,4-pyrimidinediamine] | 0.989 | > 10
29 | N2-[3-(N-2-Aminoethylamino)carbonylmethylene aminophenyl]-5-fluoro-N4-[3-(2-hydroxyethylenoxy)phenyl]-2,4-pyrimidinediamine [R950232] | 10 | > 10
30 | N2-(3,4-Ethylenedioxyphenyl)-5-ethoxycarbonyl-4-[N-(L)-phenyl glycinyl ethyl ester)-2-pyrimidineamine [R926536] | > 10 | > 10
31 | CC(C)Oc1ccc(Nc2ncc(F)c(Nc3ccc(OCc4nc(-c5ccccc5)no4)cc3)n2)cc1 [R935139, 5-Fluoro-N2-(4-isopropoxyphenyl)-N4-[4-(3-phenyl-1,2,4-oxadiazol-5-yl)methyleneoxyphenyl]-2,4-pyrimidinediamine] | 0.846 | > 10
32 | Cn1nnnc1COc1ccc(Nc2ncc(F)c(Nc3cccc(O)c3)n2)cc1 [R920861, 5-Fluoro-N4-(3-hydroxyphenyl)-N2-[4-(1-methyl-1,2,3,4-tetrazol-5-yl)methyleneoxyphenyl]-2,4-pyrimidineamine] | 0.598 | > 10
33 | CCOC(=O)c1cnc(Nc2ccc(OCC(=O)NCC(O)CO)cc2)nc1Nc1cccc(O)c1 (stereo not shown) [R925840, N2-[4-(N-2,3-Dihydroxypropylamino)carbonylmethyleneoxyphenyl]-5-ethoxycarbonyl-N4-(3-hydroxyphenyl)-2,4-pyrimidinediamine] | > 10 | > 10
34 | N#CCOc1ccc(Nc2ncc(F)c(Nc3ccc4c(c3)OCCO4)n2)cc1 [R926480, N2-(4-Cyanomethyleneoxyphenyl)-N4-(3,4-ethylenedioxyphenyl)-5-fluoro-2,4-pyrimidinediamine] | 1.9 | > 10
35 | O=C1COc2ccc(Nc3nc(Cl)ncc3F)nc2N1 [Compound R945298] | > 10 | > 10
